What was measured:
[1] = release profile of encapsulated agent from chitosan particles (atomic absorption spectrometry); format: physicochemical; details: over 60 hours; particles with average diameter 500 to 2000 nm; detection by AAS
From the text: FIG. 1 is a graph showing the release profile of one embodiment of particles having an average diameter in the range of 500 to 2000 nm which may be included within a multi-layered device according to embodiments of the present invention. […] Cisplatin was used for this experiment due to its use in the treatment of oral cancer and its ease of detection via atomic absorption spectrometry (AAS).
FIG. 1 is a graph showing the release profile of example particles having an average diameter in the range of 500 to 2000 nm. […] Cisplatin was used for this experiment due to its use in the treatment of oral cancer and its ease of detection via atomic absorption spectrometry (AAS).

[2] = permeation of fluorescent dye from two-layer device into buccal tissue (fluorescence microscopy); format: in vitro ADME; details: lamb buccal tissue, multi-layer device
From the text: FIG. 2 is an image of an example multi-layered device according to example embodiments of the present invention. The device features two layers: one top layer including fluorescein isothiocyanate (FITC), a fluorescent dye which fluoresces green when examined under a fluorescent microscope, and one bottom layer including cyanine 5 (Cy5), a fluorescent dye which fluoresces red when examined under a fluorescent microscope.
FIGS. 5A-5C show three images taken from lamb buccal tissue at different time points.
In another representative embodiment, a multi-layered device may be used for the delivery of multiple agents over a prolonged period of time (FIG. 4, FIG. 5). If the example of mucositis is again used, multiple layers may include a pain mitigator in free form, a pain mitigator encapsulated within particles and an agent for the treatment of mucositis encapsulated within particles. The initial freeform layer is able to provide immediate pain relief, and the subsequent particle-encapsulated layers are capable of delivering particles beneath the tissue, where they further release their agents over a period of days, providing longer-term pain relief and treatment. FIG. 4 and FIG. 5 illustrate this effect. Fluorescence was used in order to provide detection. […]

Row | Compound | cisplatin released from particles [1] [%] | permeation into tissue ([2]; after 30 minutes) | permeation into tissue ([2]; after 1 hour)
1 | N.N.[Cl][Pt][Cl] [cisplatin] | 45 | – | –
2 | fluorescein isothiocyanate [FITC] | – | beginning to permeate the tissue | permeating deeper into the tissue

— patent US11938228B2, “Particle-based multi-layer therapeutic delivery device and method” (Privo Technologies, Inc., priority 2017, dated 2024)
